In US20060069132A1, “Azolecarboxamide herbicides” (priority 2004, published 2006):

Key:
rice [1] = experiment: Test B pre-/postemergence herbicide test; assay type: in vivo, Oryza sativa; conditions: preemergence
Summary of the method: (§1)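 Herbicidal effect was judged by eye on a 0–100 scale after plants stood 13 to 15 days in the greenhouse following pre- or postemergence treatment with surfactant-containing formulations.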

large crabgrass [2] = experiment: Test A pre-/postemergence herbicide test; assay type: in vivo, Digitaria sanguinalis
Summary of the method: (§2)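 Visual injury rating on a 0–100 scale (0 no effect, 100 complete control) versus untreated controls, about ten days after treatment in greenhouse. Pre: directed soil spray onto seeded sandy loam. Post: spray to runoff on plants 2–10 cm tall at one- to two-leaf stage.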

[3] = tested on: small flower umbrella sedge; experiment: Test B flooded paddy test; assay type: in vivo, Cyperus difformis; conditions: 1000 g ai/ha, visual rating, scale 0 to 100 (0 no effect, 100 complete control), 13 to 15 days
Summary of the method: (§3)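 Visual ratings, 0 (no effect) to 100 (complete control), made versus controls after 13–15 d greenhouse. Paddy plants treated at 2-leaf stage; postemergence plants at 1- to 4-leaf stage, 2–18 cm tall.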

barnyardgrass [4] = experiment: Test A pre-/postemergence herbicide test; assay type: in vivo, Echinochloa crus-galli
Summary of the method: as §2

velvetleaf [5] = experiment: Test A pre-/postemergence herbicide test; assay type: in vivo, Abutilon theophrasti
Summary of the method: as §2

morningglory [6] = experiment: Test A pre-/postemergence herbicide test; assay type: in vivo, Ipomoea spp.
Summary of the method: as §2

wheat = experiment: Test B postemergence herbicide test; assay type: in vivo, Triticum aestivum; set-up: key to Wheat plant response rating: 0 = no effect, 100 = complete control; conditions: postemergence, 500 g ai/ha; visual rating, scale 0 (no effect) to 100 (complete control)
Summary of the method: (§4)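 Plants grow to 1- to 4-leaf stage (2–18 cm) for postemergence spraying, or to 2-leaf stage for the paddy test. Formulated compound is applied. Greenhouse holding lasts 13–15 days. Response is scored visually relative to controls, 0 no effect to 100 complete control; a dash means no result.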

large crabgrass [7] = experiment: Test B pre-/postemergence herbicide test; assay type: in vivo, Digitaria sanguinalis; conditions: for Plant response rating, Crabgrass, Large: preemergence; for Crabgrass, Large plant response rating: postemergence, visual rating, scale 0 (no effect) to 100 (complete control)
Summary of the method: as §1

corn = experiment: Test B pre-/postemergence herbicide test; assay type: in vivo, Zea mays; conditions: for Plant response rating, Corn: preemergence; for Corn plant response rating: postemergence, visual rating, scale 0 (no effect) to 100 (complete control)
Summary of the method: as §1

pigweed = experiment: Test B pre-/postemergence herbicide test; assay type: in vivo, Amaranthus retroflexus; conditions: for Plant response rating, Pigweed: preemergence; for Pigweed plant response rating: postemergence, visual rating, scale 0 (no effect) to 100 (complete control)
Summary of the method: as §1

Surinam grass = experiment: Test B pre-/postemergence herbicide test; assay type: in vivo, Urochloa decumbens; conditions: for Plant response rating, Surinam Grass: preemergence; for Surinam Grass plant response rating: postemergence, visual rating, scale 0 (no effect) to 100 (complete control)
Summary of the method: as §1

cocklebur = experiment: Test B pre-/postemergence herbicide test; assay type: in vivo, Xanthium strumarium; conditions: for Plant response rating, Cocklebur: preemergence; for Cocklebur plant response rating: postemergence, visual rating, scale 0 (no effect) to 100 (complete control)
Summary of the method: (§5)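 Visual rating, 0 (no effect) to 100 (complete control), versus untreated controls after 13–15 d in greenhouse. Pre- and postemergence applications (postemergence plants 2–18 cm, 1–4 leaves); flooded paddy arm at 2-leaf stage. Compounds in non-phytotoxic solvent plus surfactant.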

barnyardgrass [8] = experiment: Test B pre-/postemergence herbicide test; assay type: in vivo, Echinochloa crus-galli; conditions: for Plant response rating, Barnyardgrass: preemergence; for Barnyardgrass plant response rating: postemergence, visual rating, scale 0 (no effect) to 100 (complete control)
Summary of the method: as §5

rice [9] = experiment: Test B flooded paddy test; assay type: in vivo, Oryza sativa; conditions: 1000 g ai/ha, visual rating, scale 0 to 100 (0 no effect, 100 complete control), 13 to 15 days
Summary of the method: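 Treated at 2-leaf (paddy) or 1–4-leaf, 2–18 cm (postemergence); greenhouse 13–15 d; visual score vs control, 0 none to 100 complete control; dash = not tested.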

giant foxtail [10] = experiment: Test B pre-/postemergence herbicide test; assay type: in vivo, Setaria faberi; conditions: for Plant response rating, Foxtail, Giant: preemergence; for Foxtail, Giant plant response rating: postemergence, visual rating, scale 0 (no effect) to 100 (complete control)
Summary of the method: as §1

lambsquarters = experiment: Test B pre-/postemergence herbicide test; assay type: in vivo, Chenopodium album; conditions: for Plant response rating, Lambsquarters: preemergence; for Lambsquarters plant response rating: postemergence, visual rating, scale 0 (no effect) to 100 (complete control)
Summary of the method: as §1

velvetleaf [11] = experiment: Test B pre-/postemergence herbicide test; assay type: in vivo, Abutilon theophrasti; conditions: for Plant response rating, Velvetleaf: preemergence; for Velvetleaf plant response rating: postemergence, visual rating, scale 0 (no effect) to 100 (complete control)
Summary of the method: as §1

blackgrass = experiment: Test B postemergence herbicide test; assay type: in vivo, Alopecurus myosuroides; conditions: postemergence, visual rating, scale 0 (no effect) to 100 (complete control)
Summary of the method: as §3

morningglory [12] = experiment: Test B pre-/postemergence herbicide test; assay type: in vivo, Ipomoea coccinea; conditions: for Plant response rating, Morningglory: preemergence; for Morningglory plant response rating: postemergence, visual rating, scale 0 (no effect) to 100 (complete control)
Summary of the method: as §5

giant foxtail [13] = experiment: Test A pre-/postemergence herbicide test; assay type: in vivo, Setaria faberi
Summary of the method: as §2

wild oat = experiment: Test B postemergence herbicide test; assay type: in vivo, Avena fatua; conditions: postemergence, visual rating, scale 0 (no effect) to 100 (complete control)
Summary of the method: as §4

ducksalad = experiment: Test B flooded paddy test; assay type: in vivo, Heteranthera limosa; conditions: 1000 g ai/ha, visual rating, scale 0 to 100 (0 no effect, 100 complete control), 13 to 15 days
Summary of the method: as §3

barnyardgrass [14] = experiment: Test B flooded paddy test; assay type: in vivo, Echinochloa crus-galli; conditions: 1000 g ai/ha, visual rating, scale 0 to 100 (0 no effect, 100 complete control), 13 to 15 days
Summary of the method: as §3

redroot pigweed = experiment: Test A pre-/postemergence herbicide test; assay type: in vivo, Amaranthus retroflexus
Summary of the method: as §2

[15] = 500 g ai/ha, visual rating 0-100, 0 no effect, 100 complete control
[16] = 125 g ai/ha, 0 to 100 scale, 0 is no effect, 100 is complete control
[17] = Postemergence, 500 g ai/ha, 0 to 100 scale, 0 no effect, 100 complete control
[18] = Postemergence, 2000 g ai/ha, 0 to 100 scale, 0 no effect, 100 complete control
[19] = Preemergence, 500 g ai/ha, visual rating, 0 to 100 scale (0 no effect, 100 complete control)
[20] = Preemergence, 2000 g ai/ha, visual rating, 0 to 100 scale (0 no effect, 100 complete control)
[21] = preemergence, 500 g ai/ha, visual injury, 0 to 100 scale (0 no effect, 100 complete control)

## CCn1nc(C(C)(C)C)cc1C(=O)Nc1cc(C(=O)NC(C)(C)C)ccn1 [Compound 154]
Rice [1]; [15]
  Plant response rating, Rice: 0
Rice [1]; [16]
  Plant response rating, Rice: 0
Large crabgrass [2]; [17]
  Crabgrass, Large plant response rating: 20
Large crabgrass [2]; [18]
  Plant response rating, Crabgrass, Large: 30
Large crabgrass [2]; [19]
  Crabgrass, Large plant response rating: 25
Large crabgrass [2]; [20]
  Crabgrass, Large plant response rating: 85
[3]
  Sedge, Umbrella plant response rating: 20
Barnyardgrass [4]; [17]
  Barnyardgrass plant response rating: 50
Barnyardgrass [4]; [18]
  Plant response rating, Barnyardgrass: 90
Barnyardgrass [4]; [19]
  Barnyardgrass plant response rating: 30
Barnyardgrass [4]; [20]
  Barnyardgrass plant response rating: 95
Velvetleaf [5]; [17]
  Velvetleaf plant response rating: 10
Velvetleaf [5]; [18]
  Plant response rating, Velvetleaf: 30
Velvetleaf [5]; [20]
  Velvetleaf plant response rating: 60
Velvetleaf [5]; [21]
  Velvetleaf plant response rating: 15
Morningglory [6]; [17]
  Morningglory plant response rating: 20
Morningglory [6]; [18]
  Plant response rating, Morningglory: 40
Morningglory [6]; [19]
  Morningglory plant response rating: 10
Morningglory [6]; [20]
  Morningglory plant response rating: 30
wheat
  Wheat plant response rating: 10
Large crabgrass [7]; [15]
  Plant response rating, Crabgrass, Large: 80
Large crabgrass [7]; 125 g ai/ha
  Crabgrass, Large plant response rating: 10
Large crabgrass [7]; 500 g ai/ha
  Crabgrass, Large plant response rating: 20
Large crabgrass [7]; [16]
  Plant response rating, Crabgrass, Large: 50
corn; [15]
  Plant response rating, Corn: 0
corn; 125 g ai/ha
  Corn plant response rating: 10
corn; 500 g ai/ha
  Corn plant response rating: 20
corn; [16]
  Plant response rating, Corn: 0
pigweed; [15]
  Plant response rating, Pigweed: 100
pigweed; 125 g ai/ha
  Pigweed plant response rating: 20
pigweed; 500 g ai/ha
  Pigweed plant response rating: 80
pigweed; [16]
  Plant response rating, Pigweed: 90
Surinam grass; [15]
  Plant response rating, Surinam Grass: 10
Surinam grass; 125 g ai/ha
  Surinam Grass plant response rating: 30
Surinam grass; 500 g ai/ha
  Surinam Grass plant response rating: 60
Surinam grass; [16]
  Plant response rating, Surinam Grass: 0
cocklebur; [15]
  Plant response rating, Cocklebur: 10
cocklebur; 125 g ai/ha
  Cocklebur plant response rating: 60
cocklebur; 500 g ai/ha
  Cocklebur plant response rating: 70
cocklebur; [16]
  Plant response rating, Cocklebur: 0
Barnyardgrass [8]; [15]
  Plant response rating, Barnyardgrass: 80
Barnyardgrass [8]; 125 g ai/ha
  Barnyardgrass plant response rating: 20
Barnyardgrass [8]; 500 g ai/ha
  Barnyardgrass plant response rating: 50
Barnyardgrass [8]; [16]
  Plant response rating, Barnyardgrass: 10
Rice [9]
  Rice plant response rating: 20
Giant foxtail [10]; [15]
  Plant response rating, Foxtail, Giant: 30
Giant foxtail [10]; 125 g ai/ha
  Foxtail, Giant plant response rating: 10
Giant foxtail [10]; 500 g ai/ha
  Foxtail, Giant plant response rating: 20
Giant foxtail [10]; [16]
  Plant response rating, Foxtail, Giant: 0
lambsquarters; [15]
  Plant response rating, Lambsquarters: 90
lambsquarters; 125 g ai/ha
  Lambsquarters plant response rating: 80
lambsquarters; 500 g ai/ha
  Lambsquarters plant response rating: 90
lambsquarters; [16]
  Plant response rating, Lambsquarters: 70
Velvetleaf [11]; [15]
  Plant response rating, Velvetleaf: 70
Velvetleaf [11]; 125 g ai/ha
  Velvetleaf plant response rating: 20
Velvetleaf [11]; 500 g ai/ha
  Velvetleaf plant response rating: 60
Velvetleaf [11]; [16]
  Plant response rating, Velvetleaf: 70
blackgrass; 125 g ai/ha
  Blackgrass plant response rating: 10
blackgrass; 500 g ai/ha
  Blackgrass plant response rating: 10
Morningglory [12]; [15]
  Plant response rating, Morningglory: 0
Morningglory [12]; 125 g ai/ha
  Morningglory plant response rating: 60
Morningglory [12]; 500 g ai/ha
  Morningglory plant response rating: 70
Morningglory [12]; [16]
  Plant response rating, Morningglory: 0
Giant foxtail [13]; [17]
  Foxtail, Giant plant response rating: 20
Giant foxtail [13]; [18]
  Plant response rating, Foxtail, Giant: 20
Giant foxtail [13]; [19]
  Foxtail, Giant plant response rating: 20
Giant foxtail [13]; [20]
  Foxtail, Giant plant response rating: 70
Wild oat; 125 g ai/ha
  Oat, Wild plant response rating: 10
Wild oat; 500 g ai/ha
  Oat, Wild plant response rating: 30
ducksalad
  Ducksalad plant response rating: 80
Barnyardgrass [14]
  Barnyardgrass plant response rating: 50
Redroot pigweed; [17]
  Pigweed plant response rating: 90
Redroot pigweed; [18]
  Plant response rating, Pigweed: 100
Redroot pigweed; [20]
  Pigweed plant response rating: 100
Redroot pigweed; [21]
  Pigweed plant response rating: 85
